This note sets out measurements from patent US20120264685A1 (priority 2009, published 2012).

For this assay, the system named is male C57BL/6J mice. In words: Acute single dose 120-min time-course experiment, in vivo glucose reduction. Details: unit not given here. The conditions noted are these: 2 μM/kg, oral, n = 8, Mean ± SEM. The method, then:
Acute single dose 120-min time-course experiments were carried out in male C57BL/6J or db/db mice, age 8-12 weeks, bred in-house. The animals were housed in groups of 6 animals per cage, for a week, in order to habituate them to vivarium conditions (25+4° C., 60-65% relative humidity, 12:12 h light: dark cycle, with lights on at 7.30 am). All the animal experiments were carried out according to the internationally valid guidelines following approval by the ‘Zydus Research Center animal ethical committee’.
[…] On the day of experiment, food was withdrawn from all the cages, water was given ad-libitum and were kept for overnight fasting. Vehicle (normal saline)/test/standard compounds were administered intraperitoneally (i.p.) or orally, on a body weight basis. Soon after the 0 min. blood collection from each animal, the subsequent blood collections were done at 30, 60 and 120 or upto 240 min., via retro-orbital route, under light ether anesthesia (Chen, D., et al., Diabetes Obesity Metabolism, 2005, 7, 307. Kim, J. G. et al., Diabetes, 2003, 52, 751).
The blood samples were centrifuged and the separated serum was immediately subjected for the glucose estimation. The serum for insulin estimation was stored at −70° C. until used for the insulin estimation. The glucose estimation was carried out with DPEC-GOD/POD method (Ranbaxy Fine Chemicals Limited, Diagnostic division, India), using Spectramax-190, in 96-microwell plate reader (Molecular devices Corporation, Sunnyvale, Calif.). […] The AUC and BCAUC obtained from graphs were analyzed for one way ANOVA, followed by Dunnett's post test, using Graph Pad prism software. Furthermore, the insulin estimation was carried out using rat/mouse insulin ELISA kit (Linco research, Missouri USA).

For the compound `CCc1cc(OC)ccc1-c1ccc(CC(C)(NC(=O)[C@H](CC(=O)O)NC(=O)C(C)(CO)NC(=O)[C@@H](NC(=O)C(C)(Cc2c(F)cccc2F)NC(=O)[C@@H](NC(=O)CNC(=O)[C@H](CCC(=O)O)NC(=O)[C@H](CO)NC(=O)[C@H](Cc2c[nH]cn2)NC(=O)[C@@H](N)C(C)C)[C@@H](C)O)[C@@H](C)O)C(=O)NC(C)(CCCc2ccccc2)C(N)=O)cc1` (single isomer, unassigned) [Seq. ID. No. 177, VHSEGT-(αMe-2,6-diFPhe)-T-(αMe-Ser)-D-(αMe-Bip(OMe))-(αMe-APPA)], the “blood glucose level (in vivo glucose reduction)” value is reported as 183 ± 2.4 (0 min), 116 ± 3.1 (30 min), 112 ± 4.8 (60 min) and 110 ± 2.5 (120 min).

`CCc1cc(OC)ccc1-c1ccc(CC(NC(=O)C(C)(CC(=O)O)NC(=O)C(C)(CO)NC(=O)[C@@H](NC(=O)C(C)(Cc2ccccc2F)NC(=O)[C@@H](NC(=O)CNC(=O)[C@H](CCC(N)=O)NC(=O)C2(C)CCCN2C(=O)[C@H](Cc2c[nH]cn2)NC(=O)[C@@H](N)C(C)C)[C@@H](C)O)[C@@H](C)O)C(=O)NC(C)(CCCc2ccccc2)C(N)=O)cc1` (single isomer, unassigned) [Seq. ID. No. 118, VH-(αMe-Pro)-QGT-(αMe-2FPhe)-T-(αMe-Ser)-(αMe-Asp)-Bip(OMe)-(αMe-APPA)]: the “blood glucose level (in vivo glucose reduction)” value is, setting by setting: (0 min) 184 ± 2.5; (30 min) 115 ± 1.6; (60 min) 113 ± 3.2; (120 min) 110 ± 2.4.

`CCc1cc(OC)ccc1-c1ccc(CC(C)(NC(=O)C(C)(CC(=O)O)NC(=O)[C@H](CO)NC(=O)[C@@H](NC(=O)C(C)(Cc2c(F)cccc2F)NC(=O)[C@@H](NC(=O)CNC(=O)[C@H](CCC(N)=O)NC(=O)C2(C)CCCN2C(=O)[C@H](Cc2c[nH]cn2)NC(=O)[C@@H](N)C(C)C)[C@@H](C)O)[C@@H](C)O)C(=O)NC(CCCc2ccccc2)C(N)=O)cc1` (single isomer, unassigned) [Seq. ID. No. 76, VH-(αMe-Pro)-QGT-(αMe-2,6-diFPhe)-TS-(αMe-Asp)-(αMe-Bip(OMe))-(APPA)]: the “blood glucose level (in vivo glucose reduction)” value by setting is: (0 min) 183 ± 2.4; (30 min) 116 ± 3.1; (60 min) 112 ± 4.8; (120 min) 110 ± 2.5.

For `CCc1cc(OC)ccc1-c1ccc(CC(NC(=O)[C@H](CC(=O)O)NC(=O)[C@H](CO)NC(=O)[C@@H](NC(=O)C(C)(Cc2c(F)cccc2F)NC(=O)[C@@H](NC(=O)CNC(=O)[C@H](CCC(N)=O)NC(=O)[C@H](CO)NC(=O)[C@H](Cc2c[nH]cn2)NC(=O)[C@@H](N)C(C)C)[C@@H](C)O)[C@@H](C)O)C(=O)NC(C)(CCCc2ccccc2)C(N)=O)cc1` (single isomer, unassigned) [Seq. ID. No. 99, VHSQGT-(αMe-2,6-diF-Phe)-TSD-Bip(OMe)-(αMe-APPA)], the “blood glucose level (in vivo glucose reduction)” value reads like this: (0 min) 184 ± 2.5; (30 min) 118 ± 3.6; (60 min) 113 ± 4.2; (120 min) 110 ± 2.4.
